pIC50: −log10 of the molar value.
Assays:
[1] = One week toxic study in rats; format: in vivo, Sprague-Dawley rats; conditions: oral, 100 mg/kg daily for one week; for toxicity (overall finding of one week study): same condition
Description: The compound was orally given to animals at daily does of 100 mg/kg for one week.

[2] = In-vivo test: serum cholesterol level in hypercholesterolemic rats; design: species or system male Sprague-Dawley rat; conditions: oral, once a day, 10 mg per kg; food containing 1% of cholesterol for 2 days
Description: A male Sprague-Dawley rat was made to get hypercholesterolemia by feeding with food containing 1% of cholesterol for 2 days. A compound of the present invention (compound of Example 1, 54, 17 or 64) was orally administered to the rat once a day in a dose of 10 mg per kg of the weight.

[3] = molecular target: T1, ACAT (Oryctolagus cuniculus, UniProt G1SFD9); assay: ACAT-inhibitory activity (in-vitro test, esterification of cholesterol with oleoyl-CoA, microsome of the small intestine of a rabbit); format: biochemical
T1 construct: by using the microsome of the small intestine of a rabbit as an enzyme source; from tissue; host or cells: rabbit small intestine, microsomes
T1 sequence (G1SFD9 1-524): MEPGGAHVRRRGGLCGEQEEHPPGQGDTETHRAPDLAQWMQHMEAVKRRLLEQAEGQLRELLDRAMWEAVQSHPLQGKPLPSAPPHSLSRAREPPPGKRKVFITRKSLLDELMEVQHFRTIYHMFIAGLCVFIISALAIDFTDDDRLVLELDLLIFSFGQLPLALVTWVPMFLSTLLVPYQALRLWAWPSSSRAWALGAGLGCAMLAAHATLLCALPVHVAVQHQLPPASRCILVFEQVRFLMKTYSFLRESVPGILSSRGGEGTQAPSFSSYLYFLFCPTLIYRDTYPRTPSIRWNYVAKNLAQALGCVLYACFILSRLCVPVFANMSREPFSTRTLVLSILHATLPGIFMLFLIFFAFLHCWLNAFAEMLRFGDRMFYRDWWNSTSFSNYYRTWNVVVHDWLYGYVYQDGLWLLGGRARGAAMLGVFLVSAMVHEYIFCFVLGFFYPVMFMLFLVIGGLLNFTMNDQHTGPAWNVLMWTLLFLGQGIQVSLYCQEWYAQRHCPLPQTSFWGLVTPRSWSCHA
Description: Representative compounds according to the present invention were examined for ACAT-inhibitory activity according to the in-vitro test proposed in Journal of Lipid Research, vol.
The inhibitory activity of a test compound against esterification or acylation of cholesterol with oleoyl CoA or acyl-CoA was evaluated by using the microsome of the small intestine of a rabbit as an enzyme source and determining the amount of a radioisotope-labeled cholesterol oleate made from a radioisotope-labeled oleoyl-CoA and (free) cholesterol.

| Structure (SMILES) | toxicity (overall finding of one week study) [1] | lowering of serum cholesterol level [2] | pIC50 [3] | toxicological symptom during the administration [1] |
| --- | --- | --- | --- | --- |
| CCCCCNC(=O)Nc1c(OCCCn2cnc(-c3ccccc3)c2C)cccc1N(C)C [Example 1, N-[6-N,N-Dimethylamino-2-{3-(5-methyl-4-phenyl-1H-imidazol-1-yl)propoxy}]phenyl-N'-pentylurea] | no toxic substances | effectively lowered | 7.37 |  |
| CCCCNC(=O)Nc1c(OCCCn2cnc(-c3ccccc3)c2)cccc1N(C)C [Example 2, N-[6-N,N-Dimethylamino-2-{3-(4-phenyl-1H-imidazol-1-yl)propoxy}]phenyl-N'-butylurea] | no toxic substances |  |  |  |
| CCCCCNC(=O)Nc1c(OCCCn2cnc(-c3ccccc3)c2)cccc1N(C)C [Example 5, N-[6-N,N-Dimethylamino-2-{3-(4-phenyl-1H-imidazol-1-yl)propoxy}]phenyl-N'-pentylurea] | no toxic substances |  |  |  |
| CCCCCCNC(=O)Nc1c(OCCCn2cnc(-c3ccccc3)c2)cccc1N(C)C [Example 17, N-[6-N,N-Dimethylamino-2-{3-(4-phenyl-1H-imidazol-1-yl)propoxy}]phenyl-N'-hexylurea] | no toxic substances | effectively lowered | 7.51 |  |
| CCCCNC(=O)Nc1c(C)cccc1OCCCn1cnc(-c2ccccc2)c1 [Example 54, N-[6-Methyl-2-{3-(4-phenyl-1H-imidazol-1-yl)propoxy}]-phenyl-N'-butylurea] |  | effectively lowered | 7.32 |  |
| CCCCCNC(=O)Nc1c(OCCCN2CCN(c3ccccc3)CC2)cccc1N(C)C [Example 64, N-[6-N,N-Dimethylamino-2-{3-(4-phenylpiperazin-1-yl)propoxy}]phenyl-N'-pentylurea] |  | effectively lowered | 7.77 |  |
| CCCCNC(=O)Nc1c(C)cccc1OCCCn1cnc(-c2ccccc2)c1C(C)C [Example 80, N-[6-Methyl-2-[3-{5-(1-methylethyl)-4-phenyl-1H-imidazol-1-yl}propoxy]]phenyl-N'-butylurea] | no toxic substances |  | 7.06 |  |
| CCCCNC(=O)Nc1c(C)cccc1OCCCn1cnc(-c2ccccc2)c1CC [Example 81, N-[6-Methyl-2-{3-(5-ethyl-4-phenyl-1H-imidazol-1-yl)-propoxy}]phenyl-N'-butylurea] | no toxic substance |  |  | No toxicological sympton was observed |
| CCCCCNC(=O)Nc1c(C)cccc1OCCCn1cnc(-c2ccccc2)c1Cl [Example 93, N-[6-Methyl-2-{3-(5-chloro-4-phenyl-1H-imidazol-1-yl)-propoxy}]phenyl-N'-pentylurea] |  |  | 7.31 |  |
| CCCCCNC(=O)Nc1c(C)cccc1OCCCn1cnc(-c2ccccc2)c1C [Example 127, N-[6-Methyl-2-{3-(5-methyl-4-phenyl-1H-imidazol-1-yl)-propoxy}]phenyl-N'-pentylurea] | no toxic substances |  | 7.00 |  |

Source: patent US5668136A, “Trisubstituted benzene derivatives, composition and methods of treatment” (priority 1990, dated 1997)
